The values below come from patent US10077261B2, “Imidazolin-5-one derivative useful as FASN inhibitors for the treatment of cancer” (Janssen Pharmaceutica NV, priority 2012, dated 2018).

A word on the inhibition: it is the drop in the measured response relative to a control, in per cent.

This assay deals with T1, hFASN enzyme (full length) (Homo sapiens, UniProt P49327).
T1 construct: 10 μL hFASN enzyme (full length, 300 ng, purified in house); made in house
The assay is described as follows: Fatty Acid Synthase (FASN) inhibition scintillation proximity assay. The class given is biochemical. The settings on record: for inhibition at 10 µM: read-out: Human FASN % inhibition @ 10 μM, 10 μM test compound; for IC50: read-out: Human FASN pIC50 (converted); for Human FASN pIC50: hFASN enzyme, full length, "~" means standard error of the pIC50 is larger than 0.5. A digest of the protocol:
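Full-length in-house purified enzyme (300 ng) was tested in 100 mM KH2PO4 pH 7.5, 1 mM DTT with ³H-acetyl-CoA and malonyl-CoA as substrates; compounds ranged 0.01–30 μM. Reactions were stopped with streptavidin imaging beads, read by LEADseeker at 610 nm, and fitted to a 4-parameter logistic curve.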
(In general: SPA uses beads or plates that emit light when radiolabelled molecules are held near them.)

T1 sequence (P49327 whole entry): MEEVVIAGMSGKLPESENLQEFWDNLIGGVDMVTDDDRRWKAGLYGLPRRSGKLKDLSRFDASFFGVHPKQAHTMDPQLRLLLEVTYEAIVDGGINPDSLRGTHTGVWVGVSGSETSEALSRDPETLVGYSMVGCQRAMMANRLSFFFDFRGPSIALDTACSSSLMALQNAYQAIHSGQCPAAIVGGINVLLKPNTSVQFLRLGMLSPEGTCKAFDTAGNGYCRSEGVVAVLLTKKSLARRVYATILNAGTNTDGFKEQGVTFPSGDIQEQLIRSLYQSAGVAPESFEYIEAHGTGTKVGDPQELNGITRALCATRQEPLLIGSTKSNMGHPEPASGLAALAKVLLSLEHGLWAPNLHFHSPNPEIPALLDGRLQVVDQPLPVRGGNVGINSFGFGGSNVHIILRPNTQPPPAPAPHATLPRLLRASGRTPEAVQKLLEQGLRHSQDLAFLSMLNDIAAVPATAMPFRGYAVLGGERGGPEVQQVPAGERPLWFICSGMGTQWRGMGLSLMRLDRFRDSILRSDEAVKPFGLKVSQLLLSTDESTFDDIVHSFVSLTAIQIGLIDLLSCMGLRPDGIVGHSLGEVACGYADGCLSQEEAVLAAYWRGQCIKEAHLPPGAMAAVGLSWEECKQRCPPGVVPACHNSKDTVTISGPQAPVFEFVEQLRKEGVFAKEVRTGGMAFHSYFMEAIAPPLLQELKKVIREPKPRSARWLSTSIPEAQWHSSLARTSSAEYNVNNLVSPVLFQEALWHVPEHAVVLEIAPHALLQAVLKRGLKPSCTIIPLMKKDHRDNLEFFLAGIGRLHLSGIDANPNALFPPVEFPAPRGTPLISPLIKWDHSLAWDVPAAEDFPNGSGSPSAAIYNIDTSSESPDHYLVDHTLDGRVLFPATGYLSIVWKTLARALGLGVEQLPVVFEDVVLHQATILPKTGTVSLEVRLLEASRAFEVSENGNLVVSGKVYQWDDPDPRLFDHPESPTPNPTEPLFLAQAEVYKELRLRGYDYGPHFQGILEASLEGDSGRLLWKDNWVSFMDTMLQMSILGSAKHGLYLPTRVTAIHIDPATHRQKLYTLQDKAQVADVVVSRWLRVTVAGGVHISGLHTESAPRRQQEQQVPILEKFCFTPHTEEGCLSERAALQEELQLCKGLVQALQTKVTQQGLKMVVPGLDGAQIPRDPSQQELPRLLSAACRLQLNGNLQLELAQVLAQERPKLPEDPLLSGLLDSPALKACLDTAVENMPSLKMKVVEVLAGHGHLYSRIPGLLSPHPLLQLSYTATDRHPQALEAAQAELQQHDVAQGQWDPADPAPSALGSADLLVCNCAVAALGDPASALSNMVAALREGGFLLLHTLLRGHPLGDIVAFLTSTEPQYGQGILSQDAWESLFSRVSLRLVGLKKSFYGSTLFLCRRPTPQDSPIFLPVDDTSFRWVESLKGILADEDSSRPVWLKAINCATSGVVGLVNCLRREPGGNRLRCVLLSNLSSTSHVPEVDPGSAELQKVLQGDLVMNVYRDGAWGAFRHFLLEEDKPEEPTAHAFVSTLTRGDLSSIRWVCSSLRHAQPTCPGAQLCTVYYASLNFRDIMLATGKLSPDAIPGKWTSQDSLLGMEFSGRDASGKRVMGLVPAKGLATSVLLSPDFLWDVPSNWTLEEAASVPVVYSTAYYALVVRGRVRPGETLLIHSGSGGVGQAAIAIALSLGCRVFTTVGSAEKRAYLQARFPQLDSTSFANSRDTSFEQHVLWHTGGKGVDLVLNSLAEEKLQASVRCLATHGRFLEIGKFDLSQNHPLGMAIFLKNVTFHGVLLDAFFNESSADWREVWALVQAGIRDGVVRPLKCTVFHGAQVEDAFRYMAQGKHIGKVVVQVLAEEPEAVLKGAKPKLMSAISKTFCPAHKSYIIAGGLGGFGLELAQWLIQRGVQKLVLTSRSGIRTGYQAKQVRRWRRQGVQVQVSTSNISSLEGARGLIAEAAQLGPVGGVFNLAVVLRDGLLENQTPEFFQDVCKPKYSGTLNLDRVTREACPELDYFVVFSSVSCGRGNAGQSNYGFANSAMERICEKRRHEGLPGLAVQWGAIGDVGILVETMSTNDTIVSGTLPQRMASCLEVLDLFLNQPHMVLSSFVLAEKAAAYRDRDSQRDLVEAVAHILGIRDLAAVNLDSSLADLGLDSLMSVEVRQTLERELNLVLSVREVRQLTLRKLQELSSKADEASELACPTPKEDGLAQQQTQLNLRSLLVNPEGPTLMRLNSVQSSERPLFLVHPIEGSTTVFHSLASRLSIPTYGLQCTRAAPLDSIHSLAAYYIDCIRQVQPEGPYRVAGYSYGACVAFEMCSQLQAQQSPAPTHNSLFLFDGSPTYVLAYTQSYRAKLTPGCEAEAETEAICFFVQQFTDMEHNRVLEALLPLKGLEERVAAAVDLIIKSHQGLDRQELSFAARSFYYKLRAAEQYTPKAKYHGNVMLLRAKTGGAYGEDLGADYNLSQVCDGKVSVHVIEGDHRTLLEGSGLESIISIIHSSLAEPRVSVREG

On to `Cn1nccc1-c1ccc(-c2ccc(C3=NC4(CC4)C(=O)N3C[C@@H]3CCN(C(=O)C4CC4)C3)cc2)cc1` [compound 407, 6-{[(3R)-1-(Cyclopropylcarbonyl)pyrrolidin-3-yl]methyl}-5-[4′-(1-methyl-1H-pyrazol-5-yl)biphenyl-4-yl]-4,6-diazaspiro[2.4]hept-4-en-7-one], for which the inhibition at 10 µM came to 69% and the IC50 is 2.34 µM.

As for `O=C(C1CC1)N1CC[C@H](CN2C(=O)C3(CC3)N=C2c2ccc(-c3ccc(O)cc3)cc2)C1` [compound 408, 6-{[(3S)-1-(Cyclopropylcarbonyl)pyrrolidin-3-yl]methyl}-5-(4′-hydroxybiphenyl-4-yl)-4,6-diazaspiro[2.4]hept-4-en-7-one], the inhibition at 10 µM turned out to be 63% and the IC50 is 5.13 µM.

With `O=C(C1CC1)N1CC(CN2C(=O)C3(CC3)N=C2c2ccc(-c3ccc4occc4c3)c(F)c2)C1` [compound 415], the inhibition at 10 µM was 80% and the IC50 was 1.26 µM.

For the compound `Cc1cc2cc(-c3ccc(C4=NC5(CC5)C(=O)N4CC4CN(C(=O)C5CC5)C4)cc3F)ccc2o1` [compound 416, 6-{[1-(Cyclopropylcarbonyl)azetidin-3-yl]methyl}-5-[3-fluoro-4-(2-methyl-1-benzofuran-5-yl)phenyl]-4,6-diazaspiro[2.4]hept-4-en-7-one], the inhibition at 10 µM worked out at 76% and the IC50 was roughly 1.78 µM.

As to `Cc1oc2ccc(-c3ccc(C4=NC5(CC5)C(=O)N4CC4CN(C(=O)C5CC5)C4)cc3F)cc2c1C` [compound 417, 6-{[1-(Cyclopropylcarbonyl)azetidin-3-yl]methyl}-5-[4-(2,3-dimethyl-1-benzofuran-5-yl)-3-fluorophenyl]-4,6-diazaspiro[2.4]hept-4-en-7-one], the inhibition at 10 µM stood at 62% and the IC50 is 5.25 µM.

Turning to `O=C(C1CC1)N1CC[C@@H](CN2C(=O)C3(CC3)N=C2c2ccc(-c3ccc4occc4c3)s2)C1` [compound 422, 5-[5-(1-Benzofuran-5-yl)thiophen-2-yl]-6-{[(3R)-1-(cyclopropylcarbonyl)pyrrolidin-3-yl]methyl}-4,6-diazaspiro[2.4]hept-4-en-7-one], the inhibition at 10 µM was determined as 70% and the IC50 was 3.31 µM.

In the case of `O=C(C1CC1)N1CC[C@@H](CN2C(=O)C3(CC3)N=C2c2ccc(-c3ccc4[nH]ncc4c3)s2)C1` [compound 424, 6-{[(3R)-1-(Cyclopropylcarbonyl)pyrrolidin-3-yl]methyl}-5-[5-(1H-indazol-5-yl)thiophen-2-yl]-4,6-diazaspiro[2.4]hept-4-en-7-one], the inhibition at 10 µM came out at 68% and the IC50 is 3.98 µM.

As to `Cn1ncc2cc(-c3ccc(C4=NC5(CC5)C(=O)N4C[C@@H]4CCN(C(=O)C5CC5)C4)s3)ccc21` [compound 430, 6-{[(3R)-1-(Cyclopropylcarbonyl)pyrrolidin-3-yl]methyl}-5-[5-(1-methyl-1H-indazol-5-yl)thiophen-2-yl]-4,6-diazaspiro[2.4]hept-4-en-7-one], the “Human FASN pIC50” value stood at 5.05 and the inhibition at 10 µM came out at 52%.

As to `Cc1cc2cc(-c3ccc(C4=NC5(CC5)C(=O)N4CC4CN(C(=O)C5CC5)C4)cc3F)ccc2s1` [compound 433, 6-{[1-(Cyclopropylcarbonyl)azetidin-3-yl]methyl}-5-[3-fluoro-4-(2-methyl-1-benzothiophen-5-yl)phenyl]-4,6-diazaspiro[2.4]hept-4-en-7-one], the inhibition at 10 µM was determined as 72% and the IC50 was 1.82 µM.

For the compound `Cc1sc2ccc(-c3ccc(C4=NC5(CC5)C(=O)N4CC4CN(C(=O)C5CC5)C4)cc3F)cc2c1C` [compound 434, 6-{[1-(Cyclopropylcarbonyl)azetidin-3-yl]methyl}-5-[4-(2,3-dimethyl-1-benzothiophen-5-yl)-3-fluorophenyl]-4,6-diazaspiro[2.4]hept-4-en-7-one], the inhibition at 10 µM was determined as 73% and the IC50 was 2.04 µM.

As to `Cc1cc(C2=NC3(CC3)C(=O)N2CC2CN(C(=O)C3CC3)C2)ccc1-c1ccc2c(cnn2C)c1` [compound 436, 6-{[1-(Cyclopropylcarbonyl)azetidin-3-yl]methyl}-5-[3-methyl-4-(1-methyl-1H-indazol-5-yl)phenyl]-4,6-diazaspiro[2.4]hept-4-en-7-one], the inhibition at 10 µM was 43% and the IC50 is roughly 10 µM.

For the compound `O=C(C1CC1)N1CC[C@@H](CN2C(=O)C3(CC3)N=C2c2ncc(-c3ccc4occc4c3)cn2)C1` [compound 437, 5-[5-(1-Benzofuran-5-yl)pyrimidin-2-yl]-6-{[(3R)-1-(cyclopropylcarbonyl)pyrrolidin-3-yl]methyl}-4,6-diazaspiro[2.4]hept-4-en-7-one], the inhibition at 10 µM amounted to 72% and the IC50 was 2.75 µM.

`Cn1ncc2cc(-c3cnc(C4=NC5(CC5)C(=O)N4C[C@@H]4CCN(C(=O)C5CC5)C4)nc3)ccc21` [compound 438, 6-{[(3R)-1-(Cyclopropylcarbonyl)pyrrolidin-3-yl]methyl}-5-[5-(1-methyl-1H-indazol-5-yl)pyrimidin-2-yl]-4,6-diazaspiro[2.4]hept-4-en-7-one]: the inhibition at 10 µM turned out to be 65% and the IC50 was 3.31 µM.

As to `O=C(C1CC1)N1CC[C@@H](CN2C(=O)C3(CC3)N=C2c2cnc(-c3ccc4occc4c3)cn2)C1` [compound 439, 5-[5-(1-Benzofuran-5-yl)pyrazin-2-yl]-6-{[(3R)-1-(cyclopropylcarbonyl)pyrrolidin-3-yl]methyl}-4,6-diazaspiro[2.4]hept-4-en-7-one], the inhibition at 10 µM turned out to be 48% and the IC50 is 9.55 µM.

Take `Cn1ncc2cc(-c3ccc(C4=NC5(CC5)C(=O)N4CC4CN(C(=O)C5CC5)C4)cc3F)ccc21` [compound 441, 6-{[1-(Cyclopropylcarbonyl)azetidin-3-yl]methyl}-5-[3-fluoro-4-(1-methyl-1H-indazol-5-yl)phenyl]-4,6-diazaspiro[2.4]hept-4-en-7-one]: the inhibition at 10 µM was 63% and the IC50 was 3.98 µM.

`Cc1cc2cc(-c3ccc(C4=NC5(CC5)C(=O)N4CC4CN(C(=O)C5CC5)C4)cc3C)ccc2s1` [compound 446, 6-{[1-(Cyclopropylcarbonyl)azetidin-3-yl]methyl}-5-[3-methyl-4-(2-methyl-1-benzothiophen-5-yl)phenyl]-4,6-diazaspiro[2.4]hept-4-en-7-one]: the inhibition at 10 µM worked out at 60% and the IC50 was 5.01 µM.

For the compound `Cc1cc(C2=NC3(CC3)C(=O)N2CC2CN(C(=O)C3CC3)C2)ccc1-c1ccc2sc(C)c(C)c2c1` [compound 447, 6-{[1-(Cyclopropylcarbonyl)azetidin-3-yl]methyl}-5-[4-(2,3-dimethyl-1-benzothiophen-5-yl)-3-methylphenyl]-4,6-diazaspiro[2.4]hept-4-en-7-one], the inhibition at 10 µM is 79% and the IC50 was 1.2 µM.

`Cc1cc(C2=NC3(CC3)C(=O)N2CC2CN(C(=O)C3CC3)C2)ccc1-c1ccc2[nH]ncc2c1` [compound 448, 6-{[1-(Cyclopropylcarbonyl)azetidin-3-yl]methyl}-5-[4-(1H-indazol-5-yl)-3-methylphenyl]-4,6-diazaspiro[2.4]hept-4-en-7-one]: the inhibition at 10 µM was found to be 50% and the IC50 was 8.51 µM.

Turning to `O=C(C1CC1)N1CC(CN2C(=O)C3(CC3)N=C2c2ccc(-c3ccc4[nH]ncc4c3)c(F)c2)C1` [compound 451, 6-{[1-(Cyclopropylcarbonyl)azetidin-3-yl]methyl}-5-[3-fluoro-4-(1H-indazol-5-yl)phenyl]-4,6-diazaspiro[2.4]hept-4-en-7-one], the inhibition at 10 µM was 82% and the IC50 was 1.26 µM.

Regarding `CC(C)n1ncc2cc(-c3ccc(C4=NC5(CC5)C(=O)N4C[C@@H]4CCN(C(=O)C5CC5)C4)cc3)ccc21` [compound 454, 6-{[(3R)-1-(Cyclopropylcarbonyl)pyrrolidin-3-yl]methyl}-5-{4-[1-(1-methylethyl)-1H-indazol-5-yl]phenyl}-4,6-diazaspiro[2.4]hept-4-en-7-one], the inhibition at 10 µM turned out to be 53% and the IC50 is roughly 6.03 µM.

On to `O=C(C1CC1)N1CC[C@@H](CN2C(=O)C3(CC3)N=C2c2ccc(-c3ccc4c(c3)OCCO4)cc2)C1` [compound 456, 6-{[(3R)-1-(Cycloprop-ylcarbonyl)pyrrolidin-3-yl]methyl}-5-[4-(2,3-dihydro-1,4-benzodioxin-6-yl)phenyl]-4,6-diazaspiro[2.4]hept-4-en-7-one], for which the inhibition at 10 µM is 65% and the IC50 is 6.92 µM.

As to `O=C(C1CC1)N1CC[C@@H](CN2C(=O)C3(CC3)N=C2c2cnc(-c3ccc4occc4c3)nc2)C1` [compound 458, 5-[2-(1-Benzofuran-5-yl)pyrimidin-5-yl]-6-{[(3R)-1-(cyclopropylcarbonyl)pyrrolidin-3-yl]methyl}0-4,6-diazaspiro[2.4]hept-4-en-7-one], the inhibition at 10 µM was found to be 48% and the IC50 was 8.13 µM.

As to `Cn1ncc2cc(-c3ncc(C4=NC5(CC5)C(=O)N4C[C@@H]4CCN(C(=O)C5CC5)C4)cn3)ccc21` [compound 459, 6-{[(3R)-1-(Cyclopropylcarbonyl)pyrrolidin-3-yl]methyl}-5-[2-(1-methyl-1H-indazol-5-yl)pyrimidin-5-yl]-4,6-diazaspiro[2.4]hept-4-en-7-one], the “Human FASN pIC50” value came out at 5.06 and the inhibition at 10 µM was found to be 43%.

`Cc1cc(C2=NC3(CC3)C(=O)N2CC2CN(C(=O)C3CC3)C2)ccc1-c1ccc2oc(C#N)cc2c1` [compound 460, 5-[4-(6-{[1-(Cyclopropylcarbonyl)azetidin-3-yl]methyl}-7-oxo-4,6-diazaspiro[2.4]hept-4-en-5-yl)-2-methylphenyl]-1-benzofuran-2-carbonitrile]: the inhibition at 10 µM amounted to 63% and the IC50 was 3.09 µM.
